The values that follow come from patent publication US10093695B2, “Sterol derivative, preparation method therefor and use thereof” (Beijing Peking University WBL Biotech Co., Ltd., priority 2012, dated 2018).

The target of assay [1] is T1, HMG-CoA reductase (Rattus norvegicus, UniProt P51639).
T1 construct: take out a male rat liver, after washing the male rat liver with a KESD buffer solution; from tissue; host or cells: male rat liver microsomes
T1 sequence (P51639 1-887): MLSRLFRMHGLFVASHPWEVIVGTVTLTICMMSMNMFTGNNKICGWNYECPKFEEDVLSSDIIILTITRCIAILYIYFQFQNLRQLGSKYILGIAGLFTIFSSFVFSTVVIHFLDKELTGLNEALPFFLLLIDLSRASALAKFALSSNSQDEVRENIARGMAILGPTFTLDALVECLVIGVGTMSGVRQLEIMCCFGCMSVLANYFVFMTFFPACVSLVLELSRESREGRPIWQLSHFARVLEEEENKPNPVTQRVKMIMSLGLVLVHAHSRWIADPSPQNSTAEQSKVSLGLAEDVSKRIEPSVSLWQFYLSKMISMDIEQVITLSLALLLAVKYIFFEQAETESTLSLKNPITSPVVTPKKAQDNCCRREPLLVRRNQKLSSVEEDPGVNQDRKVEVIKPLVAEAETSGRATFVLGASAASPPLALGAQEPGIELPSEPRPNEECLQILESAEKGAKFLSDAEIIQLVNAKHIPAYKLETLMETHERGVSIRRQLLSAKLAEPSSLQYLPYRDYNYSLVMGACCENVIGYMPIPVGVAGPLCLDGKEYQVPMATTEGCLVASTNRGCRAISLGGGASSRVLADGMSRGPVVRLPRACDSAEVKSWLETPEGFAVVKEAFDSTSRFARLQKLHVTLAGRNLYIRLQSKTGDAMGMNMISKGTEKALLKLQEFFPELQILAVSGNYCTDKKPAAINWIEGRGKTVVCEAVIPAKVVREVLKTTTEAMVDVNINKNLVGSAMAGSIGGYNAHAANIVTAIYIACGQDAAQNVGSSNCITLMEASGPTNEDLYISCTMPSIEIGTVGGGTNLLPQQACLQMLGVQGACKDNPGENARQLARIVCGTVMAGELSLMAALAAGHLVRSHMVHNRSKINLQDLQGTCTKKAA
The experiment in a line: HMG-CoA reductase inhibitory activity experiment (OD340 decrease, rat liver microsomes). The format is biochemical. The note with it: for Slope: decreasing speed of OD340 within 5 minutes, 37° C., blank control slope 15.6. The method, then: Rat liver microsomes (HMG-CoA reductase) that may be commercially available or prepared with reference to the following method: take out a male rat liver, after washing the male rat liver with a KESD buffer solution, perform 1200 g centrifugation for 15 minutes, take the supernatant, after performing 105000 g centrifugation again for 90 minutes twice, collect centrifugation sediments, add 8.3% glycerol to the centrifugation sediments, heating for 1 hour with a 37° C. warm bath, purify coarse rat liver microsomes with saturated ammonium sulfate, and collect 35-50% of the purified part. The obtained purified part may be stored in a refrigerator at −80° C.
Dissolve 5.0 mg of the compound with Structural Formula (II) prepared in the first embodiment, Compound 4 or Compound 5, and 2.0 mg of lovastatin with 1 mL of a 75% ethanol solution, respectively;
the total volume of measurement system is 250 μL and the concentrations of the constituents are: potassium chloride 200 mM, potassium dihydrogen phosphate 160 mM, ethylenediaminetetraacetic acid 4 mM and dithiothreitol 10 mM; the concentrations of two substrates NADPH and HMG-CoA are respectively 200 μM and 50 μM, pH6.8, enzyme 30 μL.
Add an ethanol solution with 5 μL of the compound prepared by the first embodiment or an ethanol solution of Compound 4 or an ethanol solution of Compound 5 to a test group, add 5 μL of a lovastatin ethanol solution to a positive control group; add 5 μL of 75% ethanol to a blank control group; detect dynamic change of OD340 on a Versamax microplate reader at 37° C., and evaluate the HMG-CoA reductase activity level by detecting the decreasing speed (represented by a slope value) of OD340 within 5 minutes to further evaluate the enzyme inhibitory activity level, the result is as shown in Table 1.
On the technique in general: Microsomes from liver hold many membrane-bound enzymes, among them those of drug oxidation.

Assay [2] concerns human mononuclear lymphoma cells THP1. The experiment in a line: In-vitro anti-lymphoma activity, MTT cell growth inhibition, THP1. The format is cell-based. As to conditions: THP-1, human mononuclear lymphoma cells THP1, 72 hours. Here is the method:
(§1) Inoculatecancer cells in the logarithmic phase in each well of a 96-well culture plate (2×10^4 cells/well); add the drugs until the final concentrations of the drugs are 500, 250, 125, 62.5, 31.25, 15.625 and 7.8125 μg/mL, after culturing the cancer cells for 72 hours in a cell incubator with a CO2 concentration of 5%, add 10 μL of MTT to each well, incubate the cancer cells at 37° C. in darkness for 4 hours, remove the culture solution, add 150 μL of Dimethyl Sulfoxide (DMSO) or acidified isopropyl alcohol, after oscillating for 5 minutes, measure the Optical Density (OD) value at a wavelength of 570 nm; repeat the steps above for three times; set a blank control group; the cell lines use the same culture medium, which is a RPMI1640 culture medium containing 10% of FBS and 1% of double-antibody (penicillin and streptomycin).
(§2) 3. Calculation Formula of Cell Viability Cell viability=(experimental group OD value/control group OD value)×100%.
FIG. 13 is a curve of inhibitory effect of a compound with Structural Formula (II) prepared in the first embodiment on cell growth of human mononuclear lymphoma cells THP1. […]

In assay [3] the test system is mouse hepatoma cell line HepG2. The experiment in a line: In-vitro anti-hepatoma activity, MTT cell growth inhibition, HepG2. The format is cell-based. The note with it: mouse hepatoma cell line HepG2, 72 hours. Here is the method:
as §1, §2
FIG. 10 is curve of inhibitory effect of a compound with Structural Formula (II) prepared in the first embodiment on cell growth of […] hepatoma cell line HepG2. […]

In assay [4] the test system is human tissue lymphoma cells U937. The experiment in a line: In-vitro anti-lymphoma activity, MTT cell growth inhibition, U937. The format is cell-based. The note with it: U-937, human tissue lymphoma cells U937, 72 hours. The method, then:
as §1, §2

Assay [5] has as its system mouse sarcoma cell line S180. The experiment in a line: In-vitro anti-cancer activity, MTT cell growth inhibition, S180. It is filed as cell-based. The note with it: S-180, mouse sarcoma cell line S180, 72 hours. The method, then:
as §1, §2
FIG. 11 is a curve of inhibitory effect of a compound with Structural Formula (II) prepared in the first embodiment on cell growth of mouse sarcoma cell line S180.

Assay [6] relates to mouse lymphoma cells YAC-1. The experiment in a line: In-vitro anti-lymphoma activity, MTT cell growth inhibition, YAC-1. It is filed as cell-based. The note with it: mouse lymphoma cells YAC-1, 72 hours. Here is the method: as §1, §2
FIG. 12 is a curve of inhibitory effect of a compound with Structural Formula (II) prepared in the first embodiment on cell growth of mouse lymphoma cells YAC-1.

In assay [7] the test system is mouse hepatoma cell line H22. The experiment in a line: In-vitro anti-hepatoma activity, MTT cell growth inhibition, H22. The note with it: mouse hepatoma cell line H22, 72 hours, read-out: half maximal inhibitory concentration (IC50) value. The format is cell-based. Here is the method: as §1, §2
FIG. 9 is a curve of inhibitory effect of a compound with Structural Formula (II) prepared in the first embodiment on cell growth of mouse hepatoma cell line H22. […]

Setting [8] is: final concentration in the system 40 μg/mL.
Setting [9] is: final concentration in the system 100 μg/mL.

On to `CC[C@H](C)C(=O)O[C@H]1C[C@@H](C)C=C2C=C[C@H](C)[C@H](CC[C@@H]3C[C@@H](O)CC(=O)O3)[C@H]21` [Lovastatin, lovastatin, reference compound], for which, in assay [1] (setting [8]), the Slope came out at 9.0 and the “Inhibitory rate (%)” value came to 42.3%.

For `C[C@@H](C(O)C1OC2C[C@@H]3[C@](C)(CC[C@H]4[C@@]35C=CC3(CC(O)CC[C@]43C)OO5)[C@H]2[C@@]1(C)O)C(C)(C)O` (stereo partly shown) [Compound with Structural Formula (II), 5,8-epidioxy-16,22-epoxy-ergosta-6-en-3,20,23,25-tetrol], the IC50 in assay [2] is ~400 µg/mL; in assay [3], ~400 µg/mL; in assay [4], ~320 µg/mL; in assay [5], ~460 µg/mL; in assay [6], ~350 µg/mL; in assay [7] it was ~200 µg/mL. The compound further yielded a Slope in assay [1] (setting [9]) of 10.7. Moreover, the “Inhibitory rate (%)” value in assay [1] (setting [9]) is on record as 31.4%.
